Laboratory results as given in patent US9573938B2 (priority 2012, dated 2017).
Where “and” joins values, the source holds several entries; their conditions need not be identical. Identical values can stand only once. Like-named read-outs stand apart in the source and are kept apart here.

Columns and labels:
[1] = biological target: 2009 H1N1 influenza A endonuclease (PAN domain) (Influenza A virus, UniProt C3W5S0); experiment: biochemical; parameters: species or system Influenza A (pandemic 2009 H1N1); details: fluorescence change over time at 37 degrees Celsius
[2] = IC50 (uM) using either 500 nM or 50 nM enzyme
[3] = 500 nM or 50 nM enzyme, read-out: IC50 (uM) using either 500 nM or 50 nM enzyme

Structure (SMILES)	IC50 [1, 2]	IC50 [1, 3] [µM]	melting point [°C]
COc1cccc(-c2ccc(O)c(=O)[nH]2)c1 [6-(3-Methoxyphenyl)-3-hydroxypyridin-2(1H)one]	0.54 µM		
O=c1[nH]c(-c2ccc(-c3nnn[nH]3)cc2)ncc1O [2-(4-(1H-Tetrazol-5-yl)phenyl)-5-hydroxypyrimidin-4(3H)-one]		0.15	
O=c1[nH]c(-c2ccc(F)cc2)c(-c2ccc(-c3nnn[nH]3)cc2)cc1O [5-[4-(1H-Tetrazol-5-yl)phenyl]-6-(4-fluorophenyl)-3-hydroxypyridin-2(1H)-one]			185 to 188
O=c1[nH]c(Br)c(-c2ccc(F)cc2)cc1O [6-Bromo-5-(4-fluorophenyl)-3-hydroxypyridin-2(1H)-one]	4.2 µM		
O=C(O)c1ccc(-c2c[nH]c(=O)c(O)c2)cc1 [4-(5-Hydroxy-6-oxo-1,6-dihydropyridin-3-yl)benzoic acid]	0.51 µM		
O=c1[nH]c(-c2ccccc2)c(-c2ccccc2)cc1O [5,6-bis(phenyl)-3-hydroxypyridin-2(1H)-one]	0.12 µM and 0.047 µM		249 to 255
N#Cc1ccc(-c2ncc(O)c(=O)[nH]2)cc1 [4-(5-Hydroxy-6-oxo-1,6-dihydropyrimidin-2-yl)benzonitrile]		0.52	
CC(C)(C)c1ccc(-c2ccc(O)c(=O)[nH]2)cc1 [6-(4-(tert-Butyl)phenyl)-3-hydroxypyridin-2(1H)-one]	1.6 µM		
O=c1[nH]c(-c2cccc(-c3nnn[nH]3)c2)ncc1O [2-(3-(1H-Tetrazol-5-yl)phenyl)-5-hydroxypyrimidin-4(3H)-one]		0.48	
O=c1[nH]cc(Br)cc1O [5-Bromo-3-hydroxypyridin-2(1H)-one]	5 µM		
O=c1[nH]c(-c2ccc(-c3nnn[nH]3)cc2)c(-c2ccc(F)cc2)cc1O [6-(4-(1H-Tetrazol-5-yl)phenyl)-5-(4-fluorophenyl)-3-hydroxypyridin-2(1H)-one]	0.018 µM		
COc1ccc(-c2ccc(O)c(=O)[nH]2)cc1 [3-Hydroxy-6-(4-methoxyphenyl)pyridin-2(1H)-one]	1.2 µM		
O=c1[nH]nc(-c2ccc(-c3nnn[nH]3)cc2)cc1O [6-(4-(1H-Tetrazol-5-yl)phenyl)-4-hydroxypyridazin-3(2H)-one]		3	
N#Cc1ccc(-c2c[nH]c(=O)c(O)c2)cc1 [5-(p-Cyanophenyl-3-hydroxypyridin-2(1H)-one]	6.07 µM		
N#Cc1ccc(-c2cc(O)c(=O)[nH]c2-c2ccc(F)cc2)cc1 [5-(4-Cyanophenyl)-6-(4-fluorophenyl)-3-hydroxypyridin-2(1H)-one]	0.136 µM		255 to 257
O=c1[nH]c(-c2ccc(F)cc2)ccc1O [6-(4-Fluoro-phenyl)-3-hydroxypyridin-2(1H)-one]		0.43	
N#Cc1ccc(-c2cc(O)c(=O)[nH]n2)cc1 [4-(5-Hydroxy-6-oxo-1,6-dihydropyridazin-3-yl)benzonitrile]		9.3	305 to 307
O=c1[nH]c(C2CCCCC2)ccc1O [6-Cyclohexyl-3-hydroxypyridin-2(1H)-one]	2.5 µM		
O=c1[nH]cc(-c2cccc(F)c2)cc1O [5-(3-Fluorophenyl-3-hydroxypyridin-2(1H)-one]	0.74 µM		
NC(=O)c1cccc(-c2cc(O)c(=O)[nH]c2-c2cccc(C(N)=O)c2)c1	0.11 µM		
O=c1[nH]c(-c2ccc(-c3nnn[nH]3)cc2)c(-c2ccc(-c3nnn[nH]3)cc2)cc1O [5,6-bis[4-(1H-Tetrazol-5-yl)phenyl]-3-hydroxypyridin-2(1H)-one]	0.29 µM		180 to 182
O=C(O)c1cccc(-c2c[nH]c(=O)c(O)c2)c1 [3-(5-Hydroxy-6-oxo-1,6-dihydropyridin-3-yl)benzoic acid]	1.79 µM		
O=c1[nH]cc(Cc2ccc(F)cc2)cc1O [5-(4-Fluorobenzyl)-3-hydroxypyridin-2(1H)-one]	8.6 µM		
O=c1[nH]c(-c2cccc(F)c2)c(-c2cccc(F)c2)cc1O [5,6-bis(3-Fluorophenyl)-3-hydroxypyridin-2(1H)-one]	0.044 µM		
O=c1[nH]c(-c2ccc(-c3nnn[nH]3)cc2)ccc1O [6-[4-(1H-tetrazol-5-yl)phenyl]-3-hydroxypyridin-2(1H)-one]	0.85 µM		
O=c1[nH]c(-c2ccc(F)cc2)c(-c2cccc(-c3nnn[nH]3)c2)cc1O [5-(3-(1H-Tetrazol-5-yl)phenyl)-6-(4-fluorophenyl)-3-hydroxypyridin-2(1H)-one]	0.034 µM		
NC(=O)c1ccc(-c2cc(O)c(=O)[nH]c2-c2ccc(C(N)=O)cc2)cc1	0.23 µM		

Structure (SMILES)	IC50 [1, 2]	IC50 [1, 3] [µM]	melting point [°C]
O=c1[nH]cc(-c2ccccc2)cc1O [5-Phenyl-3-hydroxypyridin-2(1H)-one]	> 10 µM		175 to 177
O=c1[nH]c(-c2ccc(O)c(O)c2)ccc1O [6-(3,4-Dihydroxyphenyl)-3-hydroxypyridin-2(1H)-one]	0.6 µM		
O=c1[nH]ncc(-c2ccc(F)cc2)c1O [5-(4-Fluorophenyl)-4-hydroxypyridazin-3(2H)-one]	> 200 µM		274 to 276
O=C(O)c1ccc(-c2cc(O)c(=O)[nH]c2-c2ccc(C(=O)O)cc2)cc1 [4,4′-(5-hydroxy-6-oxo-1,6-dihydropyridine-2,3-diyl)dibenzoic acid]	0.9 µM		
O=c1[nH]cc(C2CCCCC2)cc1O [5-Cyclohexyl-3-hydroxypyridin-2(1H)-one]	2.1 µM		
O=c1[nH]c(-c2ccc(F)cc2)c(-c2ccc(F)cc2)cc1O [5,6-bis(4-Fluorophenyl)-3-hydroxypyridin-2(1H)-one]			152 to 157
O=c1[nH]c(Br)c(Br)cc1O [5,6-Dibromo-3-hydroxypyridin-2(1H)-one]	1.5 µM		
N#Cc1ccc(-c2cc(O)c(=O)[nH]c2-c2ccc(C#N)cc2)cc1 [5,6-bis(4-Cyanophenyl)-3-hydroxypyridin-2(1H)-one]	0.1 µM		159 to 162
O=c1[nH]c(-c2ccc([N+](=O)[O-])cc2)c(-c2ccc([N+](=O)[O-])cc2)cc1O [3-Hydroxy-5,6-bis(4-nitrophenyl)pyridin-2(1H)-one]	0.72 µM		
O=c1[nH]c(-c2cccc(F)c2)ccc1O [6-(3-Fluorophenyl)-3-hydroxypyridin-2(1H)-one]	0.53 µM		
O=c1[nH]cnc(-c2ccc(F)cc2)c1O [6-(4-Fluorophenyl)-5-hydroxypyrimidin-4(3H)-one]	193 µM		285 to 287
O=c1[nH]c(C2=CCCCC2)ccc1O [6-(Cyclohex-1-en-1-yl)-3-hydroxypyridin-2(1H)-one]	0.75 µM		
N#Cc1ccc(Nc2cc(O)c(=O)[nH]c2-c2ccc(F)cc2)cc1 [4-((2-(4-Fluorophenyl)-5-hydroxy-6-oxo-1,6-dihydropyridin-3-yl)amino)benzonitrile]	1 µM		
O=C(O)c1cccc(-c2cc(O)c(=O)[nH]c2-c2ccc(F)cc2)c1 [3-(2-(4-Fluorophenyl)-5-hydroxy-6-oxo-1,6-dihydropyridin-3-yl)benzoic acid]	0.035 µM		
N#Cc1cccc(-c2cc(O)c(=O)[nH]c2-c2ccc(F)cc2)c1 [3-(2-(4-Fluorophenyl)-5-hydroxy-6-oxo-1,6-dihydropyridin-3-yl)benzonitrile]	0.049 µM		
O=c1[nH]c(Cc2ccc(-c3ccccc3)cc2)c(-c2ccc(F)cc2)cc1O [6-([1,1′-Biphenyl]-4-ylmethyl)-5-(4-fluorophenyl)-3-hydroxypyridin-2(1H)-one]	0.12 µM		
O=c1[nH]cc(-c2ccc(-c3nnn[nH]3)cc2)cc1O [5-[4-(1H-Tetrazol-5-yl)phenyl]-3-hydroxypyridin-2(1H)-one]	0.37 µM		
O=c1[nH]cc(-c2ccc(F)cc2)cc1O [5-(4-Fluorophenyl)-3-hydroxypyridin-2(1H)-one]		0.73	
O=c1[nH]c(-c2ccc(C(F)(F)F)cc2)ccc1O [3-Hydroxy-6-(4-(trifluoromethyl)phenyl)pyridin-2(1H)-one]	0.4 µM		
O=c1[nH]nc(-c2ccc(F)cc2)cc1O [6-(4-Fluorophenyl)-4-hydroxypyridazin-3(2H)-one]		6	281 to 283
O=c1[nH]c(-c2ccc(F)cc2)ncc1O [2-(4-Fluorophenyl)-5-hydroxypyrimidin-4(3H)-one]		0.58	252 to 254
O=c1[nH]cc(-c2cccc(-c3nnn[nH]3)c2)cc1O [5-[3-(1H-Tetrazol-5-yl)phenyl]-3-hydroxypyridin-2(1H)-one]	0.85 µM		
N#Cc1ccc(-c2ccc(O)c(=O)[nH]2)cc1 [6-(4-Cyanophenyl-3-hydroxypyridin-2(1H)-one]	1.2 µM		
O=c1[nH]cc(Cl)cc1O [5-Chloro-3-hydroxypyridin-2(1H)-one]	5 µM		
N#Cc1cccc(-c2ncc(O)c(=O)[nH]2)c1 [3-(5-Hydroxy-6-oxo-1,6-dihydropyrimidin-2-yl)benzonitrile]		0.25	
O=C(O)c1cccc(-c2cc(O)c(=O)[nH]c2-c2cccc(C(=O)O)c2)c1 [3,3′-(5-Hydroxy-6-oxo-1,6-dihydropyridine-2,3-diyl)dibenzoic acid]	0.7 µM		
N#Cc1ccc(-c2[nH]c(=O)c(O)cc2-c2ccc(F)cc2)cc1 [5-(4-Fluorophenyl)-6-(4-cyanophenyl)-3-hydroxypyridin-2(1H)-one]	0.054 µM		255 to 258
